Results published in patent US10519132B2, “Isocorydine derivatives, preparation method and use thereof” (Lanzhou Institute of Chemical Physics, Chinese Academy of …, priority 2017, dated 2019).
Values after ≈ are worked out from the molar mass of the structure shown. Where two headings read alike, the source gives them in different places.

Columns and labels:
[1] = test system: human breast cancer cell strain MAD-MB-231; assay: MTT growth inhibition on MAD-MB-231; format: cell-based; conditions: MDA-MB-231, after 48 h of action
Method: (§1) By using an MTT method, a sample solution to be tested was added to a 96-well plate in which cancer cells were adherently grown. Culturing was performed for a certain period, and the growth inhibition effect of a compound on a human cancer cell strain for primary screening was measured to determine the anti-cancer activity of the compound.
(§2) Cell culture: A cell incubator was set to conditions of 37° C., 5% CO2, and a saturated humidity, cells were cultured under these conditions, and the cell medium was a DMEM complete medium, wherein 10% fetal bovine serum, 100 IU/mL penicillin, and 100 μg/mL streptomycin were comprised.
(§3) The single cell suspension was diluted to 5×10^3/100 μL after counting, inoculated on a 96-well cell culture plate (triplicate), and adherently cultured overnight; […]
(§4) The culture liquid was discarded, 100 μL of DMSO was added, low-speed oscillation was performed for 10 min by placing on a shaker, and the spectrophotometric value of each well was measured at a wavelength of 490 nm by using a microplate reader. Statistical analysis was performed and tumor cell growth inhibition rate was calculated according to the equation: Growth inhibition rate=(OD value of control group−OD value of experimental group)/OD value of control group.

[2] = test system: ascites hepatoma H22 induced solid tumor; assay: In vivo tumor growth inhibition in mice bearing H22; set-up: species or system white Kunming mice; conditions: Table 4, intraperitoneal, 10 d
Excerpt: 1. Tumor strain and animal for experiments: H22 liver cancer cell strain was provided by Teaching and Research Office, School of Basic Medical Sciences, Lanzhou University/Key Lab of Preclinical Study for New Drugs of Gansu Province, and was passage and preserved by periodically intraperitoneal inoculation. White Kunming mice (18.0-22.0 g) were provided by Lanzhou Veterinary Institute, Chinese Academy of Agriculture.
2. Establishment of tumor models and method of grouping: a third passage of mice which were well grown 7 d after intraperitoneal inoculation of H22 tumor cells were sacrificed by cervical dislocation, and placed and soaked in 75% alcohol for 10 min. After 3 mL of sterile physiological saline was intraperitoneally injected, milky tumor cell ascites was withdrawn from the abdominal cavity, and formulated into a tumor cell suspension with sterile physiological saline, with a cell number of 1.5×10^7 mL^−1. 80 white Kunming mice were taken, and 0.2 mL of the tumor cell suspension was subcutaneously inoculated to the left axilla of each mouse. 24 h after the inoculation of tumor cells, the mice were divided into 8 groups according to body weights, 10 mice for each group. […] All of the administration manners were intraperitoneal administration.
3. Result of experiments: On the second day of modeling, continuous administration was performed for 10 d. Administration was stopped on the 11th d, and mice were sacrificed by cervical dislocation on the next day.
Test method: For the test method, see Example 24. Results can be seen in FIG. 15, FIG. 16, and Table 5.
Method: Modeling was performed by using the method of establishing H22 white mice tumor-bearing model of Example 24. The in vivo tumor growth inhibition activity of COM33 on H22 model mice was measured in an intraperitoneal injection administration manner.

[3] = test system: ascites hepatoma H22 induced solid tumor; assay: as above; set-up: species or system white Kunming mice; conditions: for Tumor inhibition rate (%): Table 5
[4] = test system: human gastric cancer cell strain MGC-803; assay: MTT growth inhibition on MGC-803; conditions: Homo sapiens;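 further: adherent cells exposed to compound over a concentration gradient for 24, 48 and 72 h, MTT absorbance at 490 nm, inhibition relative to untreated control wells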
Method: as §1, §2
(§5) The single cell suspension was diluted to 5×10^3/100 μL after counting, inoculated on a 96-well cell culture plate (triplicate), and adherently cultured overnight;
(§6) After 24 h of adhesion, the complete medium was discarded, 100 μL-sample-solutions to be tested having different concentrations were sequentially added to the 96-well plate according to a concentration gradient, and incubations were continued for 24 h, 48 h, and 72 h;
(§7) The culture liquid was discarded, a 0.5 mg/mL MTT diluted working liquid was added, and incubation was performed for 4 h by placing in an incubator;
as §4
(§8) Culturing was performed for a certain period, the growth inhibition effect of a compound on 3 human cancer cell strains for primary screening was measured to determine the anti-cancer activity of the compound, and a growth inhibition curve was plotted.

[5] = test system: human liver cancer cell strain SMMC-7721; assay: MTT growth inhibition on SMMC-7721; format: cell-based; conditions: concentration range of 10-40 μg/mL, one of 6 types of tumor cells
Method: as §1, §2, §3, §4

[6] = test system: human cervical cancer Hela cell strains; assay: MTT growth inhibition on Hela; conditions: Homo sapiens, HeLa;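 further: compound exposure of 24, 48 or 72 h in DMEM with 10% fetal bovine serum, MTT absorbance read at 490 nm, inhibition calculated relative to control group OD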
Method: as §1, §2, §5, §6, §7, §4, §8

human brain glioma U251 = assay: MTT growth inhibition on U251; format: cell-based; conditions: U-251, after 48 h of action
Method: as §1, §2, §3, §4

Vimentin = assay: Western blotting, Vimentin expression in HepG2 cells; format: cell-based, human; conditions: FICD experiment (FIG. 12)
Description: Method: Gel electrophoresis of protein samples. Gel formulation: All components were added to a small beaker according to a formulation of a separation gel, uniformly mixed with slightly shaking to prevent the generation of bubbles, quickly applied to a seam of a glass plate with a 1 mL pipette, and then blocked with double distilled water to prevent oxidation. After 30 min, the separation gel solidified, the double distilled water thereof was poured off, waster was suctioned with a filter paper, a 5% concentration gel was formulated, TEMED was finally loaded onto the glass plate, and a 1.0 mm comb was inserted into the concentration gel and placed at room temperature for 30 min. The comb was slightly, vertically, and carefully pulled up, various groups of 20 μL protein samples were pipetted with a microsyringe, an equal volume of a loading buffer and an equal volume of a loading buffer containing 3 μL of Marker were separately added to a loading well, an electrophoresis instrument was switched on after electrodes were plugged, gels were run at 75V for 30 min, and the voltage was changed to 120V and gels were run for 2 h when bromophenol blue reaches the separation gel. Membrane transfer: A PVDF membrane having a suitable size was cut according to the size of the gel, placed in a methanol solution for 1 min, lifted, and placed and soaked together with a well cut filter paper in a previously precooled membrane transfer buffer. A sponge pad, three layers of filter paper, a gel, three layers of filter paper, and a sponge pad, in this order from top to bottom, were placed in a membrane transfer tank, and a precooled membrane transfer buffer was then added. Several ice bags were placed circumferentially to prevent an excessively hot external environment, and electrodes were plugged and membrane transfer was performed at a constant current of […] for 2.5 hours. Blocking and incubation of antibodies: A transferred membrane was cut into desired bands, which were placed in a blocking solution of 5% skim milk powder, placed on a shaker, and shaken at room temperature at a low speed for 1 h. A primary antibody was diluted with the blocking solution, a corresponding antibody was pipetted and added to a zip lock bag, the PVDF membrane was then placed in the antibody dilution, bubbles in the zip lock bag were evacuated, and the zip lock bag was sealed and placed in a refrigerator at 4° C. overnight. The membrane was withdrawn from the zip lock bag on the second day, and placed in a clean dish. A TBST solution was added and washed 3 times on a low-speed shaker, 10 min for each time. […]

IC50 [1]: 14.2 ± 0.66 µg/mL (≈ 24.6 µM)
IC50 ([4]; MGC-803, 48 h, read-out: IC50 MGC-803, after 48 h of action): 15.6 ± 2.4 µg/mL
IC50 ([4]; MGC-803, read-out: IC50 MGC-803, Table 1, MTT): 16.6 µM
IC50 ([4]; MGC-803, read-out: IC50 MGC-803, Table 2, MTT): 16.6 µM
IC50 ([6]; 48 h, read-out: IC50 Hela, after 48 h of action): 18.6 ± 0.29 µg/mL
IC50 ([6]; read-out: IC50 HeLa, Table 1, MTT): 26.5 µM
IC50 ([6]; read-out: IC50 Hela, Table 2, MTT): 26.5 µM
IC50 (human brain glioma U251): 16.8 ± 0.28 µg/mL (≈ 29.1 µM)
SMILES: COc1cc(NC(=O)Nc2ccc(Cl)c(C(F)(F)F)c2)c2c(c1O)-c1c(OC)c(OC)cc3c1C(C2)N(C)CC3 (centres unmarked) [Compound 1]
Tumor inhibition rate (%) ([2]; high FICD dosage 150 mg/Kg): 50.8%
Tumor inhibition rate (%) ([2]; low FICD dosage 50 mg/Kg): 39.1%
Tumor inhibition rate (%) ([2]; middle FICD dosage 100 mg/Kg): 45.6%
tumor inhibition rates for three administration dosages ([3]; Example 25, 150, 100 and 50 mg/Kg, intragastric or intraperitoneal injection): ≥ 40%
Tumor inhibition rate (%) ([3]; intragastric administration, high dosage 150 mg/Kg): 53.4%
Tumor inhibition rate (%) ([3]; intragastric administration, low dosage 50 mg/Kg): 40.1%
Tumor inhibition rate (%) ([3]; intragastric administration, middle dosage 100 mg/Kg): 48.2%
Tumor inhibition rate (%) ([3]; intraperitoneal injection, high dosage 150 mg/Kg): 53.0%
Tumor inhibition rate (%) ([3]; intraperitoneal injection, low dosage 50 mg/Kg): 40.3%
Tumor inhibition rate (%) ([3]; intraperitoneal injection, middle dosage 100 mg/Kg): 46.3%
growth inhibition activity [5]: certain growth inhibition activities
Vimentin expression (Vimentin): significantly increased
